Results on three compounds are retold here after PMC10224994, “Dual synergistic inhibition of COX and LOX by potential chemicals from Indian daily spices investigated through detailed computational studies” (Scientific Reports, 2023).

What all share (format): biochemical
One experiment concerns the target T1, COX-1 (ovine) (Ovis aries, UniProt P05979).
T1 construct: purchased Cayman Chemical
T1 sequence (P05979 25-600): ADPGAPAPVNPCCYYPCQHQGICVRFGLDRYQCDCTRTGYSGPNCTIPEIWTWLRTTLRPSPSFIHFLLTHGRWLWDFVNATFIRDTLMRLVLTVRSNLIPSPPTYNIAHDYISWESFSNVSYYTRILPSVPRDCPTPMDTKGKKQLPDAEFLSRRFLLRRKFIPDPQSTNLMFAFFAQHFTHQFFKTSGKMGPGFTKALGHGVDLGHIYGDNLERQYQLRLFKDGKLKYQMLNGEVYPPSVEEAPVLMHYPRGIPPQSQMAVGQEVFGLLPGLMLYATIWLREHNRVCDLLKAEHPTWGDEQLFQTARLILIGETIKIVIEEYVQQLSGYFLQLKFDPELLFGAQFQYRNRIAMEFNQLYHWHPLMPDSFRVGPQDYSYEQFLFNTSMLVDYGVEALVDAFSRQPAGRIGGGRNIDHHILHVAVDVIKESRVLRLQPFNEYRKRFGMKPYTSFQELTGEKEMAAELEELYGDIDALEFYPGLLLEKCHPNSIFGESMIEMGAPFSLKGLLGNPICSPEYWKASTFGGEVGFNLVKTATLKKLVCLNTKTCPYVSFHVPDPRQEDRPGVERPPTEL
As to the kind of experiment: In vitro COX-1 inhibition assay (EIA kit). The procedure:
(§1) The inhibitory activity was measured and reported as IC50 value (µM). Data are expressed as IC50 ± SEM for triplicate studies.
(§2) Colorimetric enzyme immunoassay (EIA) was used to assess the inhibitory potential of the test compounds against COX-1, COX-2, and 5-LOX enzymes.

Experiment [1] deals with T2, COX-2 (human recombinant) (Homo sapiens, UniProt P35354).
T2 construct: purchased Cayman Chemical
T2 sequence (P35354 18-604): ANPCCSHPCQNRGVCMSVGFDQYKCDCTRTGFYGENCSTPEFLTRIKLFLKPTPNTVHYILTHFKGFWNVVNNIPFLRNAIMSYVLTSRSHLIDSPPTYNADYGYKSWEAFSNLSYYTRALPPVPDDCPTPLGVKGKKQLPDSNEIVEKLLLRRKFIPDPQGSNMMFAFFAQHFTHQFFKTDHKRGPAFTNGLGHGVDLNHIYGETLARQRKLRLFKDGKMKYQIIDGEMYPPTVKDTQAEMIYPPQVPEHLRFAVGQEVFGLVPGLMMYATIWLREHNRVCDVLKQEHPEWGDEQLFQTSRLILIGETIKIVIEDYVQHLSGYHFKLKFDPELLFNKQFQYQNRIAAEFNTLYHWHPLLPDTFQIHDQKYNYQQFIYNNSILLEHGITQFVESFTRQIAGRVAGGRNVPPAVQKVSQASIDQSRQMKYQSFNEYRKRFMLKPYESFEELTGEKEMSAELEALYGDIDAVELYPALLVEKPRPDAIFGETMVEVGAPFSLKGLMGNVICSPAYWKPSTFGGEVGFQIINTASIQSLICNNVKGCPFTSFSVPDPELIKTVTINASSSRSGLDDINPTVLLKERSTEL
Nature of the experiment: In vitro COX-2 inhibition assay (EIA kit). The settings on record: mean of three replicates ± SEM. The procedure: as §1, §2

Another experiment has as its target T3, 5-LOX enzyme (Homo sapiens, UniProt P09917).
T3 construct: purchased Cayman Chemical
T3 sequence (P09917 1-674): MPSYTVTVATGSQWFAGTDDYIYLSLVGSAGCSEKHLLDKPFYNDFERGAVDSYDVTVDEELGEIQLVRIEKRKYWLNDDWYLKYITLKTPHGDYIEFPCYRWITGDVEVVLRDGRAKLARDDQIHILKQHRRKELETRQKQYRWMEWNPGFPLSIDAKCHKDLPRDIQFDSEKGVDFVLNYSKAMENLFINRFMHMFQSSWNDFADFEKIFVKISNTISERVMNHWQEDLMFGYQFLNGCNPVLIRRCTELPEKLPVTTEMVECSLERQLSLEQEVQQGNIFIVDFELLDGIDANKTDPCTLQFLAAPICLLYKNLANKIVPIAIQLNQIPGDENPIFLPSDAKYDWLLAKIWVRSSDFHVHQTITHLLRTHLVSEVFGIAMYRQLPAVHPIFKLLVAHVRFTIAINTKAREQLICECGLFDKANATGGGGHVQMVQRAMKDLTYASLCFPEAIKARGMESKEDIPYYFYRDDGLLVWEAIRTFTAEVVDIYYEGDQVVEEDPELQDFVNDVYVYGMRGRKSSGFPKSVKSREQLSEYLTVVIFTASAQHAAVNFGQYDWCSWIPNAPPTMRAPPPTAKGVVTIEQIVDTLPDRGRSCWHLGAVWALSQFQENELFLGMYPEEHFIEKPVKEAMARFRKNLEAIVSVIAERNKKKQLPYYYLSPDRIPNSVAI
As to the kind of experiment: In vitro 5-LOX inhibition assay (Human Lipoxygenase Inhibitor screening kit). The following applies: mean of three replicates ± SEM. The procedure:
The ability of the test compounds to inhibit the 5-LOX enzyme was evaluated using the Human Lipoxygenase Inhibitor screening assay (EIA) kit (Cayman Chemical). The IC50 values were measured in µM according to the manufacturer’s instructions and reported method[63]–[65]. Data are expressed as IC50 ± SEM for triplicate studies.
as §2

Each structure is given as a SMILES string. Like-named read-outs stand apart in the source and are kept apart here.

The compound `COc1cc(/C=C/C(=O)CC(=O)/C=C/c2ccc(O)c(OC)c2)ccc1O` [Curcumin, (1E,6E)-1,7-bis(4-hydroxy-3-methoxyphenyl)hepta-1,6-diene-3,5-dione] registered an IC50 against COX-1 (ovine) of 18.6 ± 0.44 µM.
Turning to `CCCCC[C@H](O)CC(=O)CCc1ccc(O)c(OC)c1` [Gingerol, (S)-5-hydroxy-1-(4-hydroxy-3-methoxyphenyl)decan-3-one], the IC50 on COX-1 (ovine) (mean of three replicates ± SEM, read-out: IC50 data COX-1) was 27.1 ± 0.82 µM; in experiment [1] it was 32.82 ± 0.24 µM; on 5-LOX enzyme it was 42.65 ± 0.17 µM.
As for `COc1cc(CNC(=O)CCCC/C=C/C(C)C)ccc1O` [Capsaicin, (E)-N-(4-hydroxy-3-methoxybenzyl)-8-methylnon-6-enamide], the half-maximal inhibitory concentration (IC50) at COX-1 (ovine) amounted to 24.4 ± 0.62 µM; in experiment [1], 28.3 ± 0.55 µM; against 5-LOX enzyme, 36.4 ± 0.39 µM.

The IC50 is the concentration needed to halve the response being measured.
